We go through one compound from publication PMC8956739, “A synthetic lipopeptide targeting top-priority multidrug-resistant Gram-negative pathogens” (Nature Communications, 2022).

The test system of one data set is Swiss mice, kidney. The experiment in a line: Nephrotoxicity in mice (kidney histopathology). It is filed as in vivo, mouse. In outline:
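Female Swiss mice (7-week-old, 22–28 g) received lipopeptides in saline either s.c. at 12 mg/kg ×6 every 2 h (total 72 mg/kg, n = 3) or i.p. at 20 or 25 mg/kg ×6 every 2 h (total 120 mg/kg, n = 6; 150 mg/kg, n = 3). Right kidney collected 20 h after last dose, fixed in 10% buffered formalin (pH 7.4), histology scored blinded.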

The test system of the next data set is Swiss mice. Kind of data set: Acute toxicity in mice (maximum tolerated dose, IV bolus). It is filed as in vivo, mouse. The conditions noted are these: replicates 1-4. The method, boiled down: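 Female Swiss mice (7 weeks, 22–28 g) given single IV tail-vein bolus of lipopeptide in 0.9% saline, dosed as mg/kg free base. Clinical toxicity signs monitored over 0–24 h, most frequently in first 2 h.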

For data set [1], the system named is P. aeruginosa FADDI-PA070. It is filed as cell-based, Pseudomonas aeruginosa. The conditions noted are these: FADDI-PA070. In outline:
(§1)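 Compounds were serially diluted in CaMHB, bacteria were added, and the lowest inhibitory concentration was recorded after broth microdilution testing.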

Data set [2] deals with P. aeruginosa FADDI-PA090. It is filed as cell-based, Pseudomonas aeruginosa. The conditions noted are these: FADDI-PA090. The method, boiled down:
as §1

A further data set has as its system HK-2 cells. The experiment in a line: Transcriptomic analysis (RNA-Seq) of kidney cells. It is filed as cell-based, human. The conditions noted are these: for logFC, differential gene expression for all genes / log2FC: HK-2 RNA-Seq; for log2FC: Fig. 5f. The procedure:
Human Kidney-2 (HK-2) cells (CRL-2190™, American Type Culture Collection) were treated with 100 μM colistin, F287, F319, and F365 for 24 h. Previous transcriptomic data of HK-2 cells following 24 h treatment with polymyxin B[26] were also employed for comparative bioinformatic analysis. RNA extraction was conducted as described above. Raw reads were aligned to genome GRCh38.94 (Ensembl genome database, http://ftp.ensembl.org/pub/release-94/fasta/homo_sapiens/dna/) using […] and summarized by featureCounts. Differentially expressed genes were determined using limma 3.46.0, with a combination of fold change ≥ 1.5 and FDR (by Benjamini–Hochberg algorithm) adjusted P-value ≤ 0.05 (n = 3). Key regulatory genes of HK-2 were analyzed in the context of signaling network in the Signor 2.0 database. Enrichment analysis of gene differential expression in HK-2 cells was conducted using enrichR 2.1. UpSetR 1.4.0, ComplexHeatmap 2.6.2, circlize 0.4.13 and iGraph 1.2.11 were used for data visualization. Raw data were deposited in the Short Reads Archive database under accession numbers SRR15239061-SRR15239078.

A short description of data set [3]: Cell viability after 24 h treatment. It is filed as cell-based, human. The conditions noted are these: human, KCNJ16 knockout HK-2 cells (kidney proximal tubular), Cell viability, KCNJ16 KO, KCNJ16 knockout HK-2 cells, 24 h, Fig. 6b. As for the experimental part:
(§2) Fig. 6 Transcriptomic changes in human kidney proximal tubular HK-2 cells following treatments with polymyxin B (PMB), colistin (COL), F287, F319, and F365. a Numbers of differentially expressed genes. Distinctive intersections are color-coded. b Cell viability difference (two-tailed Student’s t-test, n = 4 biologically independent cells, Benjamini–Hochberg adjusted P-values) between wild-type HK-2 and KCNJ16 knockout (KO) cells following 24 h treatment with lipopeptides. n.s., not significant; ^*adjusted P < 0.05, ^**adjusted P < 0.01, ^***adjusted P < 0.001. Data are shown as mean ± s.d. and individual data points. c Extracted transcriptional regulatory network from Signor database with 1-step neighbor constraints (enlarged for detail). Source data are provided as a Source Data file.

The test system of data set [4] is KCNJ16 knockout HK-2 cells. The experiment in a line: Cell viability after 24 h treatment. It is filed as cell-based, human. The conditions noted are these: 24 h treatment. As for the experimental part: as §2
Where [5] appears, read: 150 mg/kg/d IP in 6 divided doses every 2 h.

SMILES strings stand for the structures. ≈ marks a conversion by molar mass, not a printed value. Like-named read-outs stand apart in the source and are kept apart here. Residues, ends and D or L forms follow the SMILES beside them.

`CC[C@@H]1NC(=O)[C@@H](CC(C)C)NC(=O)[C@H](CCN)NC(=O)[C@@H](NC(=O)[C@H](CN)NC(=O)[C@@H](NC(=O)[C@H](CCN)NC(=O)c2ccc(Cl)cc2Cl)[C@@H](C)O)CCNC(=O)[C@H]([C@@H](C)O)NC(=O)[C@H](CCN)NC(=O)[C@H](CCN)NC1=O` [Lipopeptide F365] (HELM PEPTIDE1{[O=C(c1ccc(Cl)cc1Cl)[*:2]].[Dab].T.[NC[C@H](N[*:1])C(=O)[*:2]].[Dab].[Dab].[dL].[Abu].[Dab].[Dab].T}$PEPTIDE1,PEPTIDE1,5:R3-11:R2$$$V2.0): the “Kidney histopathology (SQS Score)” value with Swiss mice, kidney (72 mg/kg/d subcutaneously in six divided doses every 2 h, n = 3) was 0 (SQS 0 = no significant change (overall score, <1)). The SQS score in the data set with Swiss mice, kidney (setting [5]) was 0 (SQS 0 = no significant change (overall score, <1)). In the data set on Swiss mice, kidney (setting [5]), the “mice with the SQS score” value was 3/3. In addition, in the data set with Swiss mice, kidney (mouse, in vivo), the “Kidney histopathology, mice with the SQS score” value was 3/3. For the same compound, in the data set with Swiss mice, kidney (mouse, in vivo, ip, 120 mg/kg/day), the “Kidney histological damage, mice with the given grade” value is on record as 6/6. In the data set with Swiss mice, kidney (mouse, in vivo, ip, 150 mg/kg), the Kidney damage result is “no significant damage to the kidneys”. Further, in the data set with Swiss mice, the “MTD, single replicate” value worked out at 10.1 mg/kg. In data set [1], the “MIC P. aeruginosa FADDI-PA070” value is recorded as over 32 µg/mL. Further, the “MIC P. aeruginosa FADDI-PA090” value in data set [2] was found to be 8 µg/mL (≈ 6.9 µM). In addition, the “logFC, differential gene expression for all genes” value is on record as -0.04793 in the data set with HK-2 cells (Geneid ENSG00000223972), -0.06475 in the data set on HK-2 cells (Geneid ENSG00000227232), -1.555 in the data set with HK-2 cells (Geneid ENSG00000233750) and 0.04711 with HK-2 cells (Geneid ENSG00000278267). For the same compound, the log2FC with HK-2 cells (gene ENSG00000017483 SLC38A5) is -0.03439; in the data set with HK-2 cells (gene ENSG00000023445 BIRC3) it was -0.1649; in the data set on HK-2 cells (gene ENSG00000056558 TRAF1) it was 0.4036; in the data set with HK-2 cells (gene ENSG00000066468 FGFR2) it was -0.6638. The num.of.degs in the data set with HK-2 cells (number of differentially expressed genes per peptide, Fig. 6a) came to 70. Further, the viability (usually a read-out of living cells in per cent, often relative to untreated cells) at 24 h in data set [3] (Rep1, replicate 1, read-out: Cell viability, KCNJ16 KO, Rep1) is 76%; in data set [3] (Rep2, replicate 2, read-out: Cell viability, KCNJ16 KO, Rep2), 94.1%; in data set [3] (Rep3, replicate 3, read-out: Cell viability, KCNJ16 KO, Rep3), 100%; in data set [3] (Rep4, replicate 4, read-out: Cell viability, KCNJ16 KO, Rep4) it was 73.7%. Besides, the “effect on cell viability” value in data set [4] is “no effect on cell viability”.
